Reference: ChEMBL document CHEMBL4229418, “Design, synthesis and pharmacology of aortic-selective acyl-CoA: Cholesterol O-acyltransferase (ACAT/SOAT) inhibitors” (Bioorg Med Chem, 2018)

Experiments:
[1] = Cmax in non-fasted Beagle dog at 30 mg/kg, po by LC-MS/MS analysis; type: ADME, organism-based, Canis lupus familiaris; set-up: dose 30 mg/kg, route oral; conditions: in vivo
[2] = Cmax in fasted Beagle dog at 30 mg/kg, po by LC-MS/MS analysis; type: ADME, organism-based, Canis lupus familiaris; set-up: dose 30 mg/kg, route oral; conditions: in vivo
[3] = AUC (0 to 8 hrs) in non-fasted Beagle dog at 30 mg/kg, po by LC-MS/MS analysis; type: ADME, organism-based, Canis lupus familiaris; set-up: time < 8 hr, dose 30 mg/kg, route oral; conditions: in vivo
[4] = AUC (0 to 8 hrs) in fasted Beagle dog at 30 mg/kg, po by LC-MS/MS analysis; type: ADME, organism-based, Canis lupus familiaris; set-up: dose 30 mg/kg, time < 8 hr, route oral; conditions: in vivo
[5] = Tmax in non-fasted Sprague-Dawley rat at 30 mg/kg, po by LC-MS/MS analysis; type: ADME, organism-based; conditions: in vivo
Hamster [6] = assay: Antiatherosclerotic activity in Bio F1B hamster model of diet-induced atherosclerosis assessed as reduction in lipid accumulation areas in aortic arch at 1 mg/kg/day added to chow pellets by oil red O staining based assay relative to control; type: functional; conditions: Cricetinae
Hamster [7] = assay: Antiatherosclerotic activity in Bio F1B hamster model of diet-induced atherosclerosis assessed as reduction in lipid accumulation areas in aortic arch at 3 mg/kg/day added to chow pellets by oil red O staining based assay relative to control; type: functional; conditions: Cricetinae
[8] = Toxicity in rat measured over 2 weeks; type: organism-based; conditions: in vivo
Canis familiaris = assay: Toxicity in dog assessed as induction of necrosis in adrenal reticular zona cells at 100 mg/kg measured over 2 weeks; type: organism-based, Canis lupus familiaris; conditions: in vivo, 336 h
Hamster [9] = assay: Toxicity in Bio F1B hamster model of diet-induced atherosclerosis assessed as plasma total cholesterol level at 3 mg/kg/day added to chow pellets (reference value: 2160.1 mg/dl); type: organism-based; conditions: cricetinae, in vivo
Hamster [10] = assay: Toxicity in Bio F1B hamster model of diet-induced atherosclerosis assessed as plasma total cholesterol level at 10 mg/kg/day added to chow pellets (reference value: 2160.1 mg/dl); type: organism-based; conditions: cricetinae, in vivo
Hamster [11] = assay: Toxicity in Bio F1B hamster model of diet-induced atherosclerosis assessed as plasma total cholesterol level at 30 mg/kg/day added to chow pellets (reference value: 2160.1 mg/dl); type: organism-based; conditions: cricetinae, in vivo
Hamster [12] = assay: Effect on lipid composition in Bio F1B hamster model of diet-induced atherosclerosis assessed as liver total cholesterol level at 1 mg/kg/day added to chow pellets (reference value: 31.99 mg/dl); type: functional, Cricetinae
Hamster [13] = assay: Effect on lipid composition in Bio F1B hamster model of diet-induced atherosclerosis assessed as liver total cholesterol level at 30 mg/kg/day added to chow pellets (reference value: 31.99 mg/dl); type: functional, Cricetinae
Hamster [14] = assay: Effect on lipid composition in Bio F1B hamster model of diet-induced atherosclerosis assessed as intestine total cholesterol level at 10 mg/kg/day added to chow pellets (reference value: 4.51 mg/dl); type: functional, Cricetinae
Hamster [15] = assay: Effect on lipid composition in Bio F1B hamster model of diet-induced atherosclerosis assessed as adrenal total cholesterol level at 10 mg/kg/day added to chow pellets (reference value: 10.54 mg/dl); type: functional, Cricetinae
Hamster [16] = assay: Antiatherosclerotic activity in Bio F1B hamster model of diet-induced atherosclerosis assessed as plasma free cholesterol level at 1 mg/kg/day added to chow pellets (reference value: 780.8 mg/dl); type: functional, Cricetinae
Hamster [17] = assay: Antiatherosclerotic activity in Bio F1B hamster model of diet-induced atherosclerosis assessed as plasma free cholesterol level at 30 mg/kg/day added to chow pellets (reference value: 780.8 mg/dl); type: functional, Cricetinae
Hamster [18] = assay: Antiatherosclerotic activity in Bio F1B hamster model of diet-induced atherosclerosis assessed as liver free cholesterol level at 1 mg/kg/day added to chow pellets (reference value: 7.94 mg/dl); type: functional, Cricetinae
Hamster [19] = assay: Antiatherosclerotic activity in Bio F1B hamster model of diet-induced atherosclerosis assessed as liver free cholesterol level at 10 mg/kg/day added to chow pellets (reference value: 7.94 mg/dl); type: functional, Cricetinae
Hamster [20] = assay: Antiatherosclerotic activity in Bio F1B hamster model of diet-induced atherosclerosis assessed as intestinal free cholesterol level at 30 mg/kg/day added to chow pellets (reference value: 3.41 mg/dl); type: functional, Cricetinae
Hamster [21] = assay: Toxicity in Bio F1B hamster model of diet-induced atherosclerosis assessed as adrenal free cholesterol level at 1 mg/kg/day added to chow pellets (reference value: 4.65 mg/dl); type: organism-based; conditions: cricetinae, in vivo
Hamster [22] = assay: Toxicity in Bio F1B hamster model of diet-induced atherosclerosis assessed as adrenal free cholesterol level at 30 mg/kg/day added to chow pellets (reference value: 4.65 mg/dl); type: organism-based; conditions: cricetinae, in vivo
Hamster [23] = assay: Antiatherosclerotic activity in Bio F1B hamster model of diet-induced atherosclerosis assessed as plasma cholesterol ester level at 30 mg/kg/day added to chow pellets (reference value: 1379.3 mg/dl); type: functional, Cricetinae
Hamster [24] = assay: Antiatherosclerotic activity in Bio F1B hamster model of diet-induced atherosclerosis assessed as liver cholesterol ester level at 30 mg/kg/day added to chow pellets (reference value: 24.04 mg/dl); type: functional, Cricetinae
Hamster [25] = assay: Antiatherosclerotic activity in Bio F1B hamster model of diet-induced atherosclerosis assessed as intestinal cholesterol ester level at 1 mg/kg/day added to chow pellets (reference value: 1.09 mg/dl); type: functional, Cricetinae
Hamster [26] = assay: Antiatherosclerotic activity in Bio F1B hamster model of diet-induced atherosclerosis assessed as adrenal cholesterol ester level at 1 mg/kg/day added to chow pellets (reference value: 5.88 mg/dl); type: functional, Cricetinae
Hamster [27] = assay: Antiatherosclerotic activity in Bio F1B hamster model of diet-induced atherosclerosis assessed as adrenal cholesterol ester level at 3 mg/kg/day added to chow pellets (reference value: 5.88 mg/dl); type: functional, Cricetinae
Hamster [28] = assay: Antiatherosclerotic activity in Bio F1B hamster model of diet-induced atherosclerosis assessed as adrenal cholesterol ester level at 10 mg/kg/day added to chow pellets (reference value: 5.88 mg/dl); type: functional, Cricetinae

## CC(C)c1cccc(C(C)C)c1NC(=O)CCCCCCCCSc1nc2ccccc2o1
[1]
  Cmax: 582 ng/mL
[2]
  Cmax: 5 ng/mL
[3]
  AUC(0-t) at 8 h: 2960 ng·h/mL
[4]
  AUC(0-t) at 8 h: 14 ng·h/mL
[5]
  Tmax: 3.2 h
Hamster [6]
  inhibition in vivo at 1 mg/kg/day: 74%
Hamster [7]
  inhibition in vivo at 3 mg/kg/day: 69%
[8]
  NOAEL at 336 h: 30 mg/kg
Canis familiaris
  Activity: Toxic
Hamster [9]
  Activity: 2241 mg/dL
Hamster [10]
  Activity: 1291.7 mg/dL
Hamster [11]
  Activity: 476.3 mg/dL
Hamster [12]
  Activity: 30.75 mg/dL
Hamster [13]
  Activity: 3.03 mg/dL
Hamster [14]
  Activity: 4.07 mg/dL
Hamster [15]
  Activity: 7 mg/dL
Hamster [16]
  Activity: 828.2 mg/dL
Hamster [17]
  Activity: 217.2 mg/dL
Hamster [18]
  Activity: 7.94 mg/dL
Hamster [19]
  Activity: 3.87 mg/dL
Hamster [20]
  Activity: 4.62 mg/dL
Hamster [21]
  Activity: 4.41 mg/dL
Hamster [22]
  Activity: 2.4 mg/dL
Hamster [23]
  Activity: 259 mg/dL
Hamster [24]
  Activity: 0.69 mg/dL
Hamster [25]
  Activity: 0.98 mg/dL
Hamster [26]
  Activity: 6.72 mg/dL
Hamster [27]
  Activity: 6.02 mg/dL
Hamster [28]
  Activity: 3.5 mg/dL
